Measured values published in ChEMBL document CHEMBL5131396, “Structure-activity relationship for the folding intermediate-selective inhibition of DYRK1A” (Eur J Med Chem, 2022).
Activity calls are given as the source filed them. The rule behind the calls is not given here.

How the values were obtained:
[1] = target: T1, Dual specificity tyrosine-phosphorylation-regulated kinase 1A (Homo sapiens, UniProt Q13627); assay: Inhibition of FLAG-tagged full-length human recombinant DYRK1A (127 to 485 residues) expressed in Escherichia coli assessed as reduction in TAU intermolecular phosphorylation incubated for 30 mins by Western blot analysis
[2] = target: T1, Dual specificity tyrosine-phosphorylation-regulated kinase 1A; assay: Inhibition of FLAG-tagged full-length human recombinant DYRK1A (127 to 485 residues) expressed in Escherichia coli assessed as reduction in autophosphorylation at Ser97 residue by Western blot analysis
HEK293 = assay: Cytotoxicity against HEK293 cells up to 8 uM; assay type: toxicity, cell-based; details: human, hek293, 8 µM
[3] = target: Rho-associated protein kinase 1 (Homo sapiens) (UniProt Q13464); assay: Inhibition of ROCK1 in HEK293 cells at 1 to 2 uM measured after 4 days by Western blot analysis; assay type: cell-based; details: dose 1-2 µM, time 4.0 day
Chain of Rho-associated protein kinase 1 (Homo sapiens) (Q13464 2-1354 limits assumed): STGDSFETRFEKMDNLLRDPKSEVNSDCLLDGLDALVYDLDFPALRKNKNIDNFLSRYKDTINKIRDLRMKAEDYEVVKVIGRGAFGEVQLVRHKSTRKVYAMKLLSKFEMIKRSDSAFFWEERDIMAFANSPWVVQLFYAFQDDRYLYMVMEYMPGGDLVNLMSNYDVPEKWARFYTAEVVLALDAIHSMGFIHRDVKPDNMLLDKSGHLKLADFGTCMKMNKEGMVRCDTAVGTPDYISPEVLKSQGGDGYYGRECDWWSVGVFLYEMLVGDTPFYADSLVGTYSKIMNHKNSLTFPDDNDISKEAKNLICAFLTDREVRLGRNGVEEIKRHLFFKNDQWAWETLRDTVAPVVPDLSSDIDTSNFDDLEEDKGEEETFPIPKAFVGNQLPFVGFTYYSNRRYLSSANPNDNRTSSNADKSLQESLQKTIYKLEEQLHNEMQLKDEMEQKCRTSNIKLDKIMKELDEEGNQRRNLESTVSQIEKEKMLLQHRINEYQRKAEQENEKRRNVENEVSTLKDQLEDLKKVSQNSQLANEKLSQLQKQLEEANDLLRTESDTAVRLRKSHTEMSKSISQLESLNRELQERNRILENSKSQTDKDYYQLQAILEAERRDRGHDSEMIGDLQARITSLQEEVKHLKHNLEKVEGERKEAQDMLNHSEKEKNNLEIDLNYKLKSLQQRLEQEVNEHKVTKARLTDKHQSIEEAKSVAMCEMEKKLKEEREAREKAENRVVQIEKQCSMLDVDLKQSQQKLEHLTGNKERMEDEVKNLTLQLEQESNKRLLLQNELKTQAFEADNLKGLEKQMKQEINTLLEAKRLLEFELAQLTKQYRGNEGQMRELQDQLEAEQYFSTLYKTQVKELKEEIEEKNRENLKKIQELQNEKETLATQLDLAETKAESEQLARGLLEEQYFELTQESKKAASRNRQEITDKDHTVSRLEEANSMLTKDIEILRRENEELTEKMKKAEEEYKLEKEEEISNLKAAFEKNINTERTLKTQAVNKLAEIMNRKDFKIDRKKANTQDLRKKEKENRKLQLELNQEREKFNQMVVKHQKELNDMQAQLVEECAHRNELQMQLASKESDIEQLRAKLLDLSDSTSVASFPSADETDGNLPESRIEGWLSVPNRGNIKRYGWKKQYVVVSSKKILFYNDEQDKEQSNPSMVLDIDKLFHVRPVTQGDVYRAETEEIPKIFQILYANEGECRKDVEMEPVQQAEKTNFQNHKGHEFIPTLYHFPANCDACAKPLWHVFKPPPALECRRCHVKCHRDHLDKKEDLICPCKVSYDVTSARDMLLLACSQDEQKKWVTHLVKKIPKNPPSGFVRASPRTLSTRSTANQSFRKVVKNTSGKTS

[4] = target: Serine/threonine-protein kinase D1 (Homo sapiens) (UniProt Q15139); assay: Inhibition of recombinant PKD1 in HEK293 cells at 32 uM using DYRKtide peptide as substrate incubated for 45 mins in presence of ATP by Kinase-Glo Luminescent kinase assay
Chain of Serine/threonine-protein kinase D1 (Homo sapiens) (Q15139 whole entry, looked up, the tested form may be a part): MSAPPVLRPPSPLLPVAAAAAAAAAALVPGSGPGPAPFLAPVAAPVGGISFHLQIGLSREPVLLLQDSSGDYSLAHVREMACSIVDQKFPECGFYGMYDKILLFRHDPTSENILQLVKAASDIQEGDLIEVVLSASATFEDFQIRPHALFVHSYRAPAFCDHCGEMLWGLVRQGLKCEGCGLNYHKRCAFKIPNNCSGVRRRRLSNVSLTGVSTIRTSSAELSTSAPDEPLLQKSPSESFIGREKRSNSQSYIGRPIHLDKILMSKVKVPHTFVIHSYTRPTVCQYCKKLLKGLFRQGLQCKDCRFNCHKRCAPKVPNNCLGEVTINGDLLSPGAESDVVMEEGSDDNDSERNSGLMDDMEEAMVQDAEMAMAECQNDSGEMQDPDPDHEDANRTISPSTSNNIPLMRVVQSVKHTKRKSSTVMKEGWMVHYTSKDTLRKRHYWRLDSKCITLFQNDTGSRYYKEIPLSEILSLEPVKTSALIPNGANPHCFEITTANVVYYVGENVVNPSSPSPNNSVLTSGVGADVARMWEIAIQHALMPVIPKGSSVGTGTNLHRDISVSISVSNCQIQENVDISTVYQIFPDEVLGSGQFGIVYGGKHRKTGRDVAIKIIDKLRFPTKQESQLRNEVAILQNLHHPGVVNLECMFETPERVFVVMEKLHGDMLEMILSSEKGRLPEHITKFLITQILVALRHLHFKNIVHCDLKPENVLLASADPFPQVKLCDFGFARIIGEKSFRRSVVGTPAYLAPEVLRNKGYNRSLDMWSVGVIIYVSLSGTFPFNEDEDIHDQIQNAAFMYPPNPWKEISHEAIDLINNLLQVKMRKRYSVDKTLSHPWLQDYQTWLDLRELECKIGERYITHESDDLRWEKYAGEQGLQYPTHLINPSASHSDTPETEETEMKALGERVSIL

[5] = target: T1, Dual specificity tyrosine-phosphorylation-regulated kinase 1A; assay: Induction of degradation of endogenous FLAG-tagged full-length human recombinant DYRK1A (127 to 485 residues) expressed in Escherichia coli in HEK293 cells assessed as decrease in protein level measured after 4 days by Western blot analysis; details: dose <= 8.0 µM, time 4.0 day, DDE = dose-dependent effect
[6] = target: T1, Dual specificity tyrosine-phosphorylation-regulated kinase 1A; assay: Inhibition of FLAG-tagged full-length human recombinant DYRK1A (127 to 485 residues) expressed in Escherichia coli assessed as reduction in phosphorylated tyrosine level by Western blot analysis; details: dose <= 32.0 µM, DDE = dose-dependent effect
[7] = target: Serine/threonine-protein kinase D1 (Homo sapiens) (UniProt Q15139); assay: Inhibition of PKD1 in HEK293 cells at 1 to 2 uM measured after 4 days by Western blot analysis; details: dose 1-2 µM, time 4.0 day

Row | SMILES | IC50 [2] | Activity (HEK293) | inhibition [4] | inhibition [6] | further results
1 | CCOc1cc(/C=C2\SC(=S)NC2=O)ccc1O |  |  |  |  | inhibition [1]: Active
2 | COc1ccc(/C=C2\SC(=S)NC2=O)cc1/C=C/C1CCCCC1 | > 32 µM |  |  |  | 
3 | COc1ccc(/C=C2\SC(=S)NC2=O)cc1/C=C/[Si](C)(C)C | > 32 µM |  |  |  | 
4 | COc1ccc(/C=C2\SC(=S)NC2=O)cc1C#C[Si](C)(c1ccccc1)c1ccccc1 | 0.53 µM | Non-Toxic | Active | Dde | inhibition [3]: Active; Activity [5]: Dde; inhibition [7]: Active
5 | COc1ccc(/C=C2\SC(=S)NC2=O)cc1C#C[Si](C)(C)C |  | Non-Toxic | Active | Dde | 
6 | COc1ccc(/C=C2\SC(=S)NC2=O)cc1/C=C/C(C)(C)C | > 32 µM |  |  |  | 
